Test results from paper PMC8471451 (Pharmaceuticals, 2021).
“And” between values parts separate entries of the source, which are not always exact repeats. Equal entries are not always repeated.

Key:
HEK-293T-ACE2^h cells = assay: Cytotoxicity by MTT assay; type: cell-based, human; conditions: for CC0 (maximum nontoxic concentration): 4 h incubation; for TC50 (concentration causing 50% host cells' death): 48 h treatment
Method: The cytotoxic effect of honokiol derivatives on HEK-293T-ACE2^h cells was evaluated by MTT assay. HEK-293T-ACE2^h cells were seed into 96-well plate at a density of 1×10^4 cells per well and then treated with various concentrations of compounds for either 4 or 48 h. Then 10 μL of 3-(4, 5-dimethylthiazol-2-yl)-2, 5-diphenyltetrazolium bromide (MTT) (5 mg/mL) solution was added to each well for another 4 h incubation. The supernatants were then removed, and the formed formazan crystals were dissolved in 100 μL DMSO and the plate was agitated for 10 min. Relative cell viability was assessed by measuring the absorbance at 570 nm by using a microplate reader (Infinite M200 PRO Microplate Reader, Tecan, Swiss). The survival rate of HEK-293T-ACE2^h cells was calculated using the following formula: [(ODtreated-ODblank) / (ODcontrol-ODblank)] × 100%. The 50% toxic concentration (TC50) for 48 h was calculated by the GraphPad Prism 8.0 software (La Jolla, CA, USA). The maximum nontoxic concentration (CC0) for 4 h was determined as the maximum tested concentration in which the cell viability was 100%. Data were obtained from three independent experiments.

[1] = system: SARS-CoV-2 spike pseudovirus; assay: microbe, parasite or virus in culture; type: cell-based; conditions: for IC50: Severe acute respiratory syndrome coronavirus 2, read-out: IC50 (inhibition of 50% viral entry into host cells)
human ACE2 protein = target: T1, human ACE2 protein (Homo sapiens, UniProt Q9BYF1); assay: Biolayer interferometry (BLI) binding assay with human ACE2; conditions: His-tagged human ACE2 on Ni-NTA biosensor, 30 °C, 1:1 model
T1 construct: purchased Sino Biological

[2] = target: T2, SARS-CoV-2 spike RBD protein (Severe acute respiratory syndrome coronavirus 2, UniProt P0DTC2); type: binding
T2 construct: purchased Sino Biological

[3] = target: T3, SARS-CoV-2 spike RBD binding with ACE2 protein (Homo sapiens, UniProt Q9BYF1); assay: Competitive ELISA of spike RBD binding with ACE2; type: biochemical; conditions: read-out: Inhibitory rate of spike RBD-ACE2 binding
T3 construct: purchased Sino Biological
T3 sequence (Q9BYF1 18-740): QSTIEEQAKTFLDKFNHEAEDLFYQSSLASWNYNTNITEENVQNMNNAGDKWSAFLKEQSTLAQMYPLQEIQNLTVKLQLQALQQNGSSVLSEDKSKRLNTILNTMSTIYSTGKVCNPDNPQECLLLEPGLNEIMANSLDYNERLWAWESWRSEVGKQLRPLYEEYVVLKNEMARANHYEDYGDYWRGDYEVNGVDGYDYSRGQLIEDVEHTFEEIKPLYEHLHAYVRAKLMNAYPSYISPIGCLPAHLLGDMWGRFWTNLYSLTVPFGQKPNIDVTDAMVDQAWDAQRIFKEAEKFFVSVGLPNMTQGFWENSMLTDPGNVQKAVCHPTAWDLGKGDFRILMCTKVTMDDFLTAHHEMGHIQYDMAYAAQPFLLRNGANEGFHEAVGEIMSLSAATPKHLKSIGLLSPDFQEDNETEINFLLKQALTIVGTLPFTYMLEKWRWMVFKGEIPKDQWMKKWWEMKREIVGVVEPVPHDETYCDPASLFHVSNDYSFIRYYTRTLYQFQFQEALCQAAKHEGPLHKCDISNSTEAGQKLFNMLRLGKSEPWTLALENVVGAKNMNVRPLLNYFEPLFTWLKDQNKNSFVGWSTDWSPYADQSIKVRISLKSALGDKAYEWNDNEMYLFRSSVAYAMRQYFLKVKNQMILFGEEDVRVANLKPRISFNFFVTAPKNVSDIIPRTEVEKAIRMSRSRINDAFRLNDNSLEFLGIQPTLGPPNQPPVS

T1 sequence (Q9BYF1 18-805): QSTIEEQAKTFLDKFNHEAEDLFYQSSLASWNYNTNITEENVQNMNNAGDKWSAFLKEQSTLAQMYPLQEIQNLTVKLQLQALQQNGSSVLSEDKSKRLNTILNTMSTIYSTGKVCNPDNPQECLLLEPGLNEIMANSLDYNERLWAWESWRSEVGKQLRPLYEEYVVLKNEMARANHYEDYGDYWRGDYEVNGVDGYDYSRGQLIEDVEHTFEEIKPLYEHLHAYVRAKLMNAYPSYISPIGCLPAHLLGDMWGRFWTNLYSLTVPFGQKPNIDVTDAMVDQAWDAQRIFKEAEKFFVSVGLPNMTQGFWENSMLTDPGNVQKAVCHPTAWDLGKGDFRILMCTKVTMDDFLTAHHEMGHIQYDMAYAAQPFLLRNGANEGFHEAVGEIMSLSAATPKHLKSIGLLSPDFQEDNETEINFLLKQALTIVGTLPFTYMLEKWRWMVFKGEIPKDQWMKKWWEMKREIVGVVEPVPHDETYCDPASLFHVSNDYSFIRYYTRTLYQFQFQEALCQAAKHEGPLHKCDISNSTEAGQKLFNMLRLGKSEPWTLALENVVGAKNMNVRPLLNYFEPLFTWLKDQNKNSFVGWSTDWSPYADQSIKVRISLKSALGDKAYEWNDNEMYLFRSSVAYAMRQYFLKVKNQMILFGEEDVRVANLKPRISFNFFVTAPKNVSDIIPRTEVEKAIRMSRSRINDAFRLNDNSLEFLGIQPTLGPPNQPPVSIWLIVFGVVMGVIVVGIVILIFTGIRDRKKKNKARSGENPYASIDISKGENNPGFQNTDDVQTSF

Row | SMILES | CC0 (maximum nontoxic concentration) (HEK-293T-ACE2^h cells) [µM] | TC50 (concentration causing 50% host cells' death) (HEK-293T-ACE2^h cells) | IC50 [1] [µM] | also measured
1 | C=CCc1cc(-c2cc(CC=C)c3oc(=O)n(Cc4nnc(-c5cccc(Cl)c5)o4)c3c2)c2oc(=O)n(Cc3nnc(-c4cccc(Cl)c4)o3)c2c1 [Compound 6c] | >100 | >100 µM | > 100 | –
2 | C=CCc1cc(-c2cc(CC=C)c3oc(=O)n(Cc4nnc(-c5ccc(Br)cc5)o4)c3c2)c2oc(=O)n(Cc3nnc(-c4ccc(Br)cc4)o3)c2c1 [Compound 6g] | 50 | – | > 50 | –
3 | C=CCc1cc(-c2cc(CC=C)c3oc(=O)n(Cc4nnc(-c5ccc(F)cc5)o4)c3c2)c2oc(=O)n(Cc3nnc(-c4ccc(F)cc4)o3)c2c1 [Compound 6j] | 50 | – | > 50 | Antiviral entry activity (in words) [1]: complete loss of antiviral activities
4 | C=CCc1cc(-c2cc(CC=C)c3oc(=O)n(Cc4nnc(-c5cccc(F)c5)o4)c3c2)c2oc(=O)n(Cc3nnc(-c4cccc(F)c4)o3)c2c1 [Compound 6i] | >100 | >100 µM | > 100 | Antiviral entry activity (in words) [1]: complete loss of antiviral activities
5 | C=CCc1cc(-c2cc(CC=C)c3oc(=O)n(Cc4nnc(-c5cccc(OC)c5)o4)c3c2)c2oc(=O)n(Cc3nnc(-c4cccc(OC)c4)o3)c2c1 [Compound 6o] | >100 | >100 µM | > 100 | –
6 | C=CCc1cc(-c2cc(CC=C)c3oc(=O)n(Cc4nnc(-c5ccccc5C)o4)c3c2)c2oc(=O)n(Cc3nnc(-c4ccccc4C)o3)c2c1 [Compound 6k] | >100 | >100 µM | > 100 | –
7 | C=CCc1cc(-c2cc(CC=C)c3oc(=O)n(Cc4nnc(-c5ccccc5Cl)o4)c3c2)c2oc(=O)n(Cc3nnc(-c4ccccc4Cl)o3)c2c1 [Compound 6b] | >100 | >100 µM | > 100 | –
8 | C=CCc1cc(-c2cc(CC=C)c3oc(=O)n(Cc4nnc(-c5ccc(OC)cc5)o4)c3c2)c2oc(=O)n(Cc3nnc(-c4ccc(OC)cc4)o3)c2c1 [Compound 6p] | >100 | >100 µM | 9.82 ± 1.16 | SI (selectivity index, TC50/IC50) [1]: >10.18; Kd (human ACE2 protein): 6.87 ± 0.29 µM; Interaction with spike RBD [2]: doesn’t show interaction; inhibition at 12.5 µM ([3]; 12.5 µM): 26.1%; inhibition at 25 µM [3]: 37.2%; inhibition at 50 µM [3]: 50.4%
9 | C=CCc1ccc(O)c(-c2ccc(O)c(CC=C)c2)c1 [honokiol, reference compound] | 50 | 48.23 µM and 48.23 ± 1.19 µM | > 50 | Kd (human ACE2 protein): 17 ± 3.4 µM; inhibition at 25 µM [3]: 13.8%; inhibition at 50 µM [3]: 20.9%
10 | C=CCc1cc(-c2cc(CC=C)c3oc(=O)n(Cc4nnc(-c5ccccc5F)o4)c3c2)c2oc(=O)n(Cc3nnc(-c4ccccc4F)o3)c2c1 [Compound 6h] | >100 | – | 61.6 ± 1.21 | SI (selectivity index, TC50/IC50) [1]: >1.62
11 | C=CCc1cc(-c2cc(CC=C)c3oc(=O)n(Cc4nnc(-c5ccc(Cl)cc5)o4)c3c2)c2oc(=O)n(Cc3nnc(-c4ccc(Cl)cc4)o3)c2c1 [Compound 6d] | 50 | – | > 50 | –
12 | C=CCc1cc(-c2cc(CC=C)c3oc(=O)n(Cc4nnc(-c5ccccc5Br)o4)c3c2)c2oc(=O)n(Cc3nnc(-c4ccccc4Br)o3)c2c1 [Compound 6e] | >100 | >100 µM | > 100 | –
13 | C=CCc1cc(-c2cc(CC=C)c3oc(=O)n(Cc4nnc(-c5ccccc5OC)o4)c3c2)c2oc(=O)n(Cc3nnc(-c4ccccc4OC)o3)c2c1 [Compound 6n] | 50 | – | > 50 | –
14 | C=CCc1cc(-c2cc(CC=C)c3oc(=O)n(Cc4nnc(-c5cccc(Br)c5)o4)c3c2)c2oc(=O)n(Cc3nnc(-c4cccc(Br)c4)o3)c2c1 [Compound 6f] | 50 | – | > 50 | –
15 | C=CCc1cc(-c2cc(CC=C)c3oc(=O)n(Cc4nnc(-c5cccc(C)c5)o4)c3c2)c2oc(=O)n(Cc3nnc(-c4cccc(C)c4)o3)c2c1 [Compound 6l] | >100 | >100 µM | > 100 | –
16 | C=CCc1cc(-c2cc(CC=C)c3oc(=O)n(Cc4nnc(-c5ccccc5)o4)c3c2)c2oc(=O)n(Cc3nnc(-c4ccccc4)o3)c2c1 [Compound 6a] | >100 | >100 µM | 29.2 ± 0.71 | SI (selectivity index, TC50/IC50) [1]: >3.42; Kd (human ACE2 protein): 8.41 ± 0.43 µM
17 | C=CCc1cc(-c2cc(CC=C)c3oc(=O)n(Cc4nnc(-c5ccc(C)cc5)o4)c3c2)c2oc(=O)n(Cc3nnc(-c4ccc(C)cc4)o3)c2c1 [Compound 6m] | 50 | – | > 50 | –
